# Where two headings read alike, the source gives them in different places.
# Columns and labels:
# [1] = tested on: total EGFR, EGFR (pY845) and EGFR (pY1068) in H1975 cells; assay: Western blot of EGFR markers in H1975 cells; type: cell-based; conditions: 25 μM H2O2
# Excerpt: (§1) FIG. 2A is a control. Among the four cell lines, only H1975 cells have additional T790M mutation on EGFR. […] Compared with sanguinarine, effect of H2O2 on suppression of these markers in H1975 cells is relatively less significant. […] The EGFR degradation is also specific in NSCLC cells having T790M mutation by using sanguinarine or H2O2.
# [2] = tested on: short EGFR peptide containing the T790M mutation (LIMQL); assay: ESI-MS of methionine oxidation in short EGFR peptide; type: biochemical; conditions: 10-100 μM H2O2 for 10 min
# Excerpt: The methionine amino acid of a short EGFR peptide containing the T790M mutation could be easily oxidized in a dose-dependent manner under oxidative stress condition. […] A peptide equivalent to the amino acid sequence position from 788 to 792 of EGFR in wild-type (LITQL) and T790M mutant (LIMQL) of EGFR (Sequence acquired from Pubmed database; SEQ. ID. NO. 2/GenBank Accession number of amino acid is NP_005219) is synthesized and both of them are subject to mass spectrometry. In FIG. 4A, ESI-MS detects the standard peptide of LIMQL and oxidized form of the peptide (LIM(O)QL). They are used as standard of the MS pattern of the un-oxidized form of methionine (“M”) and the oxidized form methionine (“M(O)”) for the EGFR short peptide. FIG. 4B-G are ESI-MS results of oxidized methionine in peptide treated with different concentrations of H2O2: FIG. 4B is for H2O2 untreated sample; FIG. 4C is for sample treated with 10 μM H2O2 for 10 min; FIG. 4D is for sample treated with 20 μM H2O2 for 10 min; FIG. 4E is for sample treated with 40 μM H2O2 for 10 min; FIG. 4F is for sample treated with 80 μM H2O2 for 10 min; FIG. 4G is for sample treated with 100 μM H2O2 for 10 min. One of representative data is shown (n=3).
# [3] = tested on: EGFR construct having double mutation (L858R and T790M) in HEK293 cells; assay: Western blot of total EGFR in HEK293 cells transfected with EGFR L858R+T790M double mutation; type: cell-based
# Description: HEK293 cells are used in this example as cell model to be transfected with different constructs of EGFR (wild-type, L858R mutation, Exon 19 deletion, L858R+T790M double mutation). In FIG. 3A, 3 μM saguinarine is added into the HEK293 transfected with different EGFR constructs.
# [4] = tested on: total EGFR, EGFR (pY845) and EGFR (pY1068) in A594 cells; assay: Western blot of EGFR markers in A594 cells; type: cell-based; conditions: H2O2
# Excerpt: as §1
# H1975 = assay: Blocking of sanguinarine-induced apoptosis and EGFR degradation in H1975; type: cell-based; conditions: H1975, 24 hrs, flow cytometry
# Excerpt: The fold change of treated group is normalized to untreated group. Results are expressed as mean±S.E.M. The data represent mean±S.E.M. of three independent experiments. (n=3, ***p<0.001). In FIG. 6B, the up-regulation of NOX 3 by sanguinarine is also confirmed on protein level, which is corresponding to the degradation of EGFR. […] One of representative data is shown (n=3). FIG. 6D uses real-time PCR to detect the RNA expression level of Msr A in five NSCLC cell lines. The expression level of Msr in other 5 cell lines is normalized to that of BEAS-2B cell line. The data represent mean±S.E.M. of three independent experiments (n=3, *p<0.05, **p<0.01, ***p<0.001). The result in this example supports that NADPH oxidase and methionine sulfoxide reductase are key enzymes involved in the ROS generation induced by […] in gefitinib-resistant NSCLC. Schematic diagram of how methionine (Met) is oxidized by NADPH oxidase (ROS) and reduced by methionine sulfoxide reductase is shown in FIG. 5. FIG. 7 is a cell model further illustrating how sanguinarine and H2O2 act on the signaling pathway of inducing EGFR degradation in H1975 cells, and thereby leading to apoptosis of the cells. […]
# H1975(EGFR^L858R+T790M) = assay: IC50 of sanguinarine against NSCLC cell line H1975; type: cell-based; conditions: for IC50: Homo sapiens, NCI-H1975
# Excerpt: (§2) Among the five cell lines, H1975 is the most sensitive cells to sanguinarine treatment, while A549 is the most resistant one.
# H2228 (EML4-ALK) [5] = assay: IC50 of sanguinarine against NSCLC cell line H2228; type: cell-based; conditions: Homo sapiens, NCI-H2228
# Excerpt: as §2
# HCC827(EGFR^L858R) = assay: IC50 of sanguinarine against NSCLC cell line HCC827; type: cell-based; conditions: Homo sapiens
# Excerpt: as §2
# A549 (EGFR^wild-type) = assay: IC50 of sanguinarine against NSCLC cell line A549; type: cell-based; conditions: Homo sapiens
# Excerpt: as §2
# [6] = tested on: H1650 (EGFR^Exon19 deletion); assay: IC50 of sanguinarine against NSCLC cell line H1650; type: cell-based; conditions: Homo sapiens, NCI-H1650
# Excerpt: as §2
# H2228 (EML4-ALK) [7] = conditions: cited from earlier work
smiles,measurement,setting,value
OO [H2O2],expression level of total EGFR and pY845 EGFR,[1],slightly reduced
same,oxidation of methionine in short EGFR peptide,[2],oxidized by ROS in a time- and dose-dependent manner
same,total EGFR level,[3]; 200 μM H2O2,significant reduction
same,total EGFR level,[3]; 300 μM H2O2,more significant reduction
same,"level of all markers (total EGFR, pY845 EGFR, pY1068 EGFR)",[4],no significant change
c1ccc2c(c1)[I+]c1ccccc1-2 [DPI],blocking of apoptosis and degradation of EGFR induced by sanguinarine,H1975,blocks the apoptosis and the degradation of EGFR
C[n+]1cc2c3c(ccc2c2ccc4cc5c(cc4c21)OCO5)OCO3 [sanguinarine],IC50 value in H1975 fold lower than that of A549,H1975(EGFR^L858R+T790M); H1975 vs A549,8 fold
same,IC50 value in H1975 fold lower than that of H1650,H1975(EGFR^L858R+T790M); H1975 vs H1650,5.1 fold
same,IC50 value in H1975 fold lower than that of H2228,H1975(EGFR^L858R+T790M); H1975 vs H2228,5.4 fold
same,IC50 value in H1975 fold lower than that of HCC827,H1975(EGFR^L858R+T790M); H1975 vs HCC827,3 fold
same,IC50,"H1975(EGFR^L858R+T790M); H1975, 24 hrs, read-out: IC50 value Treatment (24 hrs)",0.68 ± 0.24 µM
same,IC50,"H1975(EGFR^L858R+T790M); H1975, 48 hrs, read-out: IC50 value Treatment (48 hrs)",0.58 ± 0.14 µM
same,IC50,"H2228 (EML4-ALK) [5]; H2228, 24 hrs, read-out: IC50 value Treatment (24 hrs)",3.73 ± 1.23 µM
same,IC50,"H2228 (EML4-ALK) [5]; H2228, 48 hrs, read-out: IC50 value Treatment (48 hrs)",3.08 ± 1.56 µM
same,IC50,"HCC827(EGFR^L858R); HCC827, 24 hrs, read-out: IC50 value Treatment (24 hrs)",1.9 ± 0.248 µM
same,IC50,"HCC827(EGFR^L858R); HCC827, 48 hrs, read-out: IC50 value Treatment (48 hrs)",1.05 ± 0.27 µM
same,IC50,"A549 (EGFR^wild-type); A549, 24 hrs, read-out: IC50 value Treatment (24 hrs)",5.71 ± 1.73 µM
same,IC50,"A549 (EGFR^wild-type); A549, 48 hrs, read-out: IC50 value Treatment (48 hrs)",3.83 ± 1.11 µM
same,IC50,"[6]; H1650, 24 hrs, read-out: IC50 value Treatment (24 hrs)",3.47 ± 1.31 µM
same,IC50,"[6]; H1650, 48 hrs, read-out: IC50 value Treatment (48 hrs)",2.64 ± 1.31 µM
COc1cc2ncnc(Nc3ccc(F)c(Cl)c3)c2cc1OCCCN1CCOCC1 [Gefitinib],Gefitinib resistance,H2228 (EML4-ALK) [7],resistance

# Source: patent US9439898B2, “Methods for novel drug discovery, treatment and selective targeting for gefitinib-resistant non-small-cell lung cancer harboring T790M mutation” (Macau University of Science and Technology, priority 2014, dated 2016)
